Inhibition data for 17 compounds are collected here from US20240124418A1 (BioTheryX, Inc., priority 2020, published 2024).

This experiment concerns TNF-α. Briefly: Cell-based TNF-α inhibition assay (LPS-induced PBMCs, Meso Scale). The following applies: PBMC, PBMCs pretreated 1 h, LPS 100 ng/mL 18-24 h, percentage of stimulated DMSO control; for inhibition at 0.1 µM: compound concentration 0.1 μM; for inhibition at 1 µM: compound concentration 1 μM. On the procedure:
Example B1. Cell-Based TNF-α Inhibition Assay
Frozen primary blood mononuclear cells (PBMCs) were quick thawed, washed once with RPMI 1640 media supplemented with 10% fetal bovine serum, 1% penicillin, and 1% streptomycin, and plated in a 96 well plate at 200,000 cells per well. The cells were pretreated with DMSO only as a control or a compound for 1 h, and then induced with LPS (lipopolysaccharide) (100 ng/mL) for 18-24 h. The supernatant was analyzed for TNF-α using the Meso Scale assay. Compound activity was determined as a percentage of the stimulated DMSO control. The results are summarized in Table 1, where A represents a percent inhibition value ≥60%; B represents a percent inhibition value <60% and ≥40%; C represents a percent inhibition value <40% and ≥20%; and D represents a single percent inhibition value <20%.

For `CCOc1cc([C@@H](CS(C)(=O)=O)N2C(=O)c3cccc(NC(=O)CCCCCCCN4CCN(CC(=O)Nc5ccc6c(C7CCC(=O)NC7=O)nn(C)c6c5)CC4)c3C2=O)ccc1OC` (stereo partly drawn) [Compound A77, 8-[4-({[3-(2,6-Dioxopiperidin-3-yl)-1-methyl-1H-indazol-6-yl]carbamoyl}-methyl)piperazin-1-yl]-N-{2-[(1S)-1-(3-ethoxy-4-methoxyphenyl)-2-methanesulfonylethyl]-1,3-dioxo-2,3-dihydro-1H-isoindol-4-yl}octanamide], the inhibition at 0.1 µM was ≥ 60% and the inhibition at 1 µM is ≥ 60%.

With `CCOc1cc([C@@H](CS(C)(=O)=O)N2C(=O)c3cccc(NC(=O)CCCCCN4CCN(CC(=O)Nc5ccc6c(C7CCC(=O)NC7=O)nn(C)c6c5)CC4)c3C2=O)ccc1OC` (stereo partly drawn) [Compound A78, 6-[4-({[3-(2,6-Dioxopiperidin-3-yl)-1-methyl-1H-indazol-6-yl]carbamoyl}-methyl)piperazin-1-yl]-N-{2-[(1S)-1-(3-ethoxy-4-methoxyphenyl)-2-methanesulfonylethyl]-1,3-dioxo-2,3-dihydro-1H-isoindol-4-yl}hexanamide], the inhibition at 0.1 µM is ≥ 60% and the inhibition at 1 µM was ≥ 60%.

With `CCOc1cc([C@@H](CS(C)(=O)=O)N2C(=O)c3cccc(NC(=O)CCCCCCCCCN4CCN(CC(=O)Nc5ccc6c(C7CCC(=O)NC7=O)nn(C)c6c5)CC4)c3C2=O)ccc1OC` (stereo partly drawn) [Compound A79, 10-[4-({[3-(2,6-Dioxopiperidin-3-yl)-1-methyl-1H-indazol-6-yl]carbamoyl}-methyl)piperazin-1-yl]-N-{2-[(1S)-1-(3-ethoxy-4-methoxyphenyl)-2-methanesulfonylethyl]-1,3-dioxo-2,3-dihydro-1H-isoindol-4-yl}decanamide], the inhibition at 0.1 µM was ≥ 60% and the inhibition at 1 µM is ≥ 60%.

In the case of `CCOc1cc([C@@H](CS(C)(=O)=O)N2C(=O)c3cccc(NC(=O)CCCCCN4CCN(CC(=O)Nc5ccc(C6CCC(=O)NC6=O)cc5)CC4)c3C2=O)ccc1OC` (stereo partly drawn) [Compound A83, 6-[4-({[4-(2,6-Dioxopiperidin-3-yl)phenyl]carbamoyl}methyl)piperazin-1-yl]-N-{2-[(1S)-1-(3-ethoxy-4-methoxyphenyl)-2-methanesulfonylethyl]-1,3-dioxo-2,3-dihydro-1H-isoindol-4-yl}hexanamide], the inhibition at 0.1 µM is ≥ 60% and the inhibition at 1 µM was ≥ 60%.

`CCOc1cc([C@@H](CS(C)(=O)=O)N2C(=O)c3cccc(NC(=O)CCCCCCCN4CCN(CC(=O)Nc5ccc(C6CCC(=O)NC6=O)cc5)CC4)c3C2=O)ccc1OC` (stereo partly drawn) [Compound A84, 8-[4-({[4-(2,6-Dioxopiperidin-3-yl)phenyl]carbamoyl}methyl)piperazin-1-yl]-N-{2-[(1S)-1-(3-ethoxy-4-methoxyphenyl)-2-methanesulfonylethyl]-1,3-dioxo-2,3-dihydro-1H-isoindol-4-yl}octanamide]: the inhibition at 0.1 µM was ≥ 60% and the inhibition at 1 µM was ≥ 60%.

Take `CCOc1cc([C@@H](CS(C)(=O)=O)N2C(=O)c3cccc(NC(=O)CCCCCCCN4CCN(CC(=O)Nc5cccc(C6CCC(=O)NC6=O)c5)CC4)c3C2=O)ccc1OC` (stereo partly drawn) [Compound A85, 8-[4-({[3-(2,6-Dioxopiperidin-3-yl)phenyl]carbamoyl}methyl)piperazin-1-yl]-N-{2-[(1S)-1-(3-ethoxy-4-methoxyphenyl)-2-methanesulfonylethyl]-1,3-dioxo-2,3-dihydro-1H-isoindol-4-yl}octanamide]: the inhibition at 0.1 µM is ≥ 60% and the inhibition at 1 µM was ≥ 60%.

Regarding `CCOc1cc([C@@H](CS(C)(=O)=O)N2C(=O)c3cccc(NC(=O)CCCCCCCCCN4CCN(CC(=O)Nc5ccc(C6CCC(=O)NC6=O)cc5)CC4)c3C2=O)ccc1OC` (stereo partly drawn) [Compound A86, 10-[4-({[4-(2,6-Dioxopiperidin-3-yl)phenyl]carbamoyl}methyl)piperazin-1-yl]-N-{2-[(1S)-1-(3-ethoxy-4-methoxyphenyl)-2-methanesulfonylethyl]-1,3-dioxo-2,3-dihydro-1H-isoindol-4-yl}decanamide], the inhibition at 0.1 µM was ≥ 60% and the inhibition at 1 µM was ≥ 60%.

For the compound `CCOc1cc([C@@H](CS(C)(=O)=O)N2C(=O)c3cccc(NC(=O)CCCCCN4CCN(CC(=O)Nc5cccc(C6CCC(=O)NC6=O)c5)CC4)c3C2=O)ccc1OC` (stereo partly drawn) [Compound A87, 6-[4-({[3-(2,6-Dioxopiperidin-3-yl)phenyl]carbamoyl}methyl)piperazin-1-yl]-N-{2-[(1S)-1-(3-ethoxy-4-methoxyphenyl)-2-methanesulfonylethyl]-1,3-dioxo-2,3-dihydro-1H-isoindol-4-yl}hexanamide], the inhibition at 0.1 µM was ≥ 60% and the inhibition at 1 µM was ≥ 60%.

For the compound `CCOc1cc([C@@H](CS(C)(=O)=O)N2C(=O)c3cccc(NC(=O)CCCCCCCCCN4CCN(CC(=O)Nc5cccc(C6CCC(=O)NC6=O)c5)CC4)c3C2=O)ccc1OC` (stereo partly drawn) [Compound A88, 10-[4-({[3-(2,6-Dioxopiperidin-3-yl)phenyl]carbamoyl}methyl)piperazin-1-yl]-N-{2-[(1S)-1-(3-ethoxy-4-methoxyphenyl)-2-methanesulfonylethyl]-1,3-dioxo-2,3-dihydro-1H-isoindol-4-yl}decanamide], the inhibition at 0.1 µM is ≥ 60% and the inhibition at 1 µM is ≥ 60%.

In the case of `CCOc1cc([C@@H](CS(C)(=O)=O)N2C(=O)c3cc(CCCCCCCCCCCCNc4cccc(NC5CCC(=O)NC5=O)c4)cc(NC(C)=O)c3C2=O)ccc1OC` (stereo partly drawn) [Compound A89, N-{6-[12-({3-[(2,6-Dioxopiperidin-3-yl)amino]phenyl}amino)dodecyl]-2-[(1S)-1-(3-ethoxy-4-methoxyphenyl)-2-methanesulfonylethyl]-1,3-dioxo-2,3-dihydro-1H-isoindol-4-yl}acetamide], the inhibition at 0.1 µM was ≥ 60% and the inhibition at 1 µM is ≥ 60%.

Regarding `CCOc1cc([C@@H](CS(C)(=O)=O)N2C(=O)c3cc(CCCCCCCCCCCCNc4cccc(NC5CCC(=O)NC5=O)c4)cc(N)c3C2=O)ccc1OC` (stereo partly drawn) [Compound A90, 4-Amino-6-[12-({3-[(2,6-dioxopiperidin-3-yl)amino]phenyl}amino)dodecyl]-2-[(1S)-1-(3-ethoxy-4-methoxyphenyl)-2-methanesulfonylethyl]-2,3-dihydro-1H-isoindole-1,3-dione], the inhibition at 0.1 µM is ≥ 60% and the inhibition at 1 µM is ≥ 60%.

On to `O=C1CCC(N2Cc3c(cc(F)cc3C3CCN(CCCCCCCCCOc4cc(C(=O)Nc5c(Cl)cncc5Cl)ccc4OC(F)F)CC3)C2=O)C(=O)N1` (stereo not shown) [Compound B4, N-(3,5-Dichloropyridin-4-yl)-4-(difluoromethoxy)-3-((9-(4-(2-(2,6-dioxo-piperidin-3-yl)-6-fluoro-1-oxoisoindolin-4-yl)piperidin-1-yl)nonyl)oxy)benzamide], for which the inhibition at 0.1 µM was ≥ 60%.

Turning to `O=C1CCC(N2Cc3c(cc(F)cc3C3CCN(CCCCCOc4cc(C(=O)Nc5c(Cl)cncc5Cl)ccc4OC(F)F)CC3)C2=O)C(=O)N1` (stereo not shown) [Compound B5, N-(3,5-Dichloropyridin-4-yl)-4-(difluoromethoxy)-3-((5-(4-(2-(2,6-dioxo-piperidin-3-yl)-6-fluoro-1-oxoisoindolin-4-yl)piperidin-1-yl)pentyl)oxy)benzamide], the inhibition at 0.1 µM is ≥ 60%.

As for `O=C1CCC(N2Cc3c(cc(F)cc3C3CCN(CCCCCCCCCOc4ccc(C(=O)Nc5c(Cl)cncc5Cl)cc4OCC4CC4)CC3)C2=O)C(=O)N1` (stereo not shown) [Compound B12, 3-(Cyclopropylmethoxy)-N-(3,5-dichloropyridin-4-yl)-4-((9-(4-(2-(2,6-dioxopiperidin-3-yl)-6-fluoro-1-oxoisoindolin-4-yl)piperidin-1-yl)nonyl)oxy)benzamide], the inhibition at 0.1 µM is 20 to 40%.

With `CC(=O)NC(=O)C(C)N1Cc2c(cc(F)cc2C2CCN(CCCCCCCCCOc3cc(C(=O)Nc4c(Cl)cncc4Cl)ccc3OC(F)F)CC2)C1=O` (stereo not shown) [Compound B13, 3-((9-(4-(2-(1-Acetamido-1-oxopropan-2-yl)-6-fluoro-1-oxoisoindolin-4-yl)piperidin-1-yl)nonyl)oxy)-N-(3,5-dichloropyridin-4-yl)-4-(difluoromethoxy)benzamide], the inhibition at 0.1 µM is ≥ 60% and the inhibition at 1 µM is ≥ 60%.

With `O=C1CCC(N2Cc3c(csc3COc3ccc(CNCCCCCCCOc4cc(C(=O)Nc5c(Cl)cncc5Cl)ccc4OC(F)F)cc3)C2=O)C(=O)N1` (stereo not shown) [Compound B18, N-(3,5-Dichloropyridin-4-yl)-4-(difluoromethoxy)-3-((7-((4-((5-(2,6-dioxo-piperidin-3-yl)-4-oxo-5,6-dihydro-4H-thieno[3,4-c]pyrrol-1-yl)methoxy)benzyl)amino)heptyl)-oxy)benzamide], the inhibition at 0.1 µM was ≥ 60% and the inhibition at 1 µM was ≥ 60%.

For `Cc1ncsc1-c1ccc(CNC(=O)[C@@H]2C[C@@H](O)CN2C(=O)[C@@H](NC(=O)CCCCCCCCOc2cc(C(=O)Nc3c(Cl)cncc3Cl)ccc2OCC2CC2)C(C)(C)C)cc1` [Compound B22, (2S,4R)-1-((S)-2-(9-(2-(Cyclopropylmethoxy)-5-((3,5-dichloropyridin-4-yl)carbamoyl)phenoxy)nonanamido)-3,3-dimethylbutanoyl)-4-hydroxy-N-(4-(4-methylthiazol-5-yl)benzyl)pyrrolidine-2-carboxamide], the inhibition at 0.1 µM was < 20% and the inhibition at 1 µM lay within 20 to 40%.

As usually defined, the inhibition is the relative decrease from the control value, in per cent.
